Laboratory results published in US10869926B2, “Suppression of myeloid derived suppressor cells and immune checkpoint blockade” (The Johns Hopkins University, priority 2014, dated 2020).
Several values for one entry are separate records, joined by “and”; a condition that tells them apart may be missing. Identical values can stand only once.

What was measured:
4T1 tumors = assay: 4T1 primary tumors and metastatic lesions (metastasis analysis); type: in vivo, BALB/c mice; conditions: for metastases (in words) / primary tumors (in words): 4T1, sacrificed six weeks after tumor implantation; for Liver Mets / Lung Mets / Primary Tumor Vol (mm^3) / Spleen Mets: six weeks after tumor implantation
Description: Tumor volume was calculated as length×width×0.5.
On day 46 post-tumor implantations, 4T1 tumor bearing mice were euthanized according to the IACUC guidelines. Lungs, livers and spleens were harvested and fixed in 10% Neutral Buffered Formalin Solution (Sigma-Aldrich) and metastatic nodules were counted from at least three mice per group.

G-MDSCs [1] = assay: In vitro survival assay (WST-1); type: cell-based, mouse; conditions: 24 hours, 0 to 50 μM
From the text: (§2) MDSCs from 4T1 tumor-bearing animals were isolated from spleens using Myeloid-Derived Suppressor Cell Isolation Kit, mouse (Miltenyi Biotec) and BD FACS Aria III cell sorter (BD Biosciences). CD8^+ cells were isolated from spleens of 4T1-bearing animals treated with anti-PD-1 and anti-CTLA-4 antibodies using CD8a^+ T Cell Isolation Kit II, mouse (Miltenyi Biotec) and BD FACS Aria III cell sorter (BD Biosciences). MDSC, Tregs, and CD8^+ T cells were isolated and cultured by following the manufacturer's protocols and published protocols (38, 39). The purity of G-MDSCs (CD11b^+Ly6G^+Ly6C^loF4/80^−MHC-II^−) and CD8^+ (CD3^+CD8^+) populations were greater than 95% as determined by flow cytometry, and the viability was greater than 95% for these populations as determined by trypan blue staining.
(§3) MDSCs and CD8^+ T cells were plated on 96-well plate at 2×10^6 cells/ml in RPMI1640 medium supplemented with 10% FBS. CD8^+ T cell cultures were supplemented with recombinant interleukin-2 (Invitrogen Life Technologies) at 2000 U/ml. […] The proportion of viable cells was assessed by incubating the cells with 10% (v/v) Cell Proliferation Reagent WST-1 (Roche Applied Science) for 3 hours at 37° C. and measuring OD450 absorbance of the resulting formazan products.

[2] = tested on: MHC-I, B2M and TAP1 genes in 4T1 cells; assay: RT-PCR of genes involved in MHC-I presentation; type: cell-based, murine; conditions: 4T1 cells cultured in vitro
Description: (§1) 5×10^6 CT26 or 4T1 cells were resuspended in 0.75 ml Trizol LS Reagent (Invitrogen Life Technologies) and 0.25 ml chloroform (Sigma-Aldrich). Samples were vortexed for 15 seconds and incubated for 10 minutes at 20° C. […] Samples were centrifuged at 12000 g for 10 minutes at 4° C. after 10 minute incubation at 20° C. The resulting pellets were air dried for less than 10 minutes and were resuspended with RNAse-free water (Invitrogen Life Technologies) for a final concentration of 500 ng/μl. PCR was performed using SuperScript III One-Step RT-PCR System with Platinum Taq DNA Polymerase (Invitrogen Life Technologies). Annealing temperature was set at 55° C. for H-2D(d), β2m and TAP1, and set at 60° C. for β-actin. […] The following […] used for RT-PCR: H-2D(d) Forward [NT] (SEQ ID NO: 1), H-2D(d) Reverse [NT] ID NO: 2), β2m Forward [NT] ID NO: 3), β2m Reverse [NT] ID NO: 4), TAP1 Forward [NT] ID NO: 5), TAP1 Reverse [NT] ID NO: 6), β-actin Forward [NT] ID NO: 7), β-actin Reverse [NT] ID NO: 8).

[3] = tested on: MHC-I, B2M and TAP1 genes in CT26 cells; assay: RT-PCR of genes involved in MHC-I presentation; type: cell-based, murine; conditions: CT26 cells cultured in vitro
Description: as §1

4T1 cells = assay: In vitro survival assay (WST-1); type: cell-based, murine; conditions: 24 hours, 0 to 50 μM
Description: 4T1 (CRL-2539, murine breast tumor cells) and CT26 (CRL-2638, murine colorectal adenocarcinoma) were purchased from ATCC. Both tumor cell lines were grown in McCoy's 5A supplemented with 10% Fetal Bovine Serum at 37° C., 5% CO2.
MDSCs and CD8^+ T cells were plated on 96-well plate at 2×10^6 cells/ml in RPMI1640 medium supplemented with 10% FBS. CD8^+ T cell cultures were supplemented with recombinant interleukin-2 (Invitrogen Life Technologies) at 2000 U/ml. 4T1 cells in McCoy 5A supplemented with 10% FBS were plated on 96-well plate and cultured until they reached >70% confluency. Cells were cultured with entinostat, 5-azacytidine, or J32 at concentrations ranging from 0 μM to 50 μM for 24 hours at 37° C., 5% CO2. The proportion of viable cells was assessed by incubating the cells with 10% (v/v) Cell Proliferation Reagent WST-1 (Roche Applied Science) for 3 hours at 37° C. and measuring OD450 absorbance of the resulting formazan products.

[4] = mouse, in vivo
Description: Body weight measurements. BALB/c mice bearing 4T1 tumors were treated with indicated therapeutic modalities. Their body weights were measured and recorded regularly after treatments. Means and standard deviations of data are shown.
Six to eight weeks old female BALB/C mice (Harlan Laboratories) were used for all animal experiments. 5×10^6 4 T1 tumor cells or 5×10^6 CT26 tumor cells were inoculated subcutaneously into the right flank of each mouse. Tumors were allowed to grow for 11 days prior to randomization and treatment. CT26 bearing mice were given 10 mg/kg of anti-PD-1 and/or anti-CTLA-4 antibodies intraperitoneally on day 11, 13, 15, 17, 20, 23 and 26 post-tumor implantations and 4T1 bearing mice were given 10 mg/kg anti-PD-1 and/or anti-CTLA-4 antibodies intraperitoneally on day 11, 13, 15, and 17 post-tumor implantations. 4T1 tumor bearing mice were given a single dose of 10 mg/kg anti-CD25 antibody or 10 mg/kg anti-Ly6G antibody intraperitoneally on day 12 post-tumor implantation for cell depletion studies. All antibodies were diluted to appropriate concentrations in 100 μl sterile PBS, pH 7.4 (Invitrogen Life Technologies). […] 4T1 bearing mice were injected intraperitoneally on day 12, 14, 16, and 18. […] Tumor volume was calculated as length×width×0.5.

G-MDSCs [5] = assay: Flow cytometry of G-MDSCs in 4T1 tumor-bearing mice; type: in vivo, BALB/c mice; conditions: added to / in combination with PD-1/CTLA-4 inhibition
From the text: The following antibodies and reagents were used for flow cytometry: CD16/32 (BD Biosciences), CD3e Alexa Fluor 488 (14-C11; BD Biosciences), CD4 Brilliant Violet 421 (GK1.5, BD Biosciences), CD8a PerCP-Cy5.5 (53-6.7, BD Biosciences), CD25 PE (PC61, BD Biosciences), Foxp3 Alexa Fluor 647 (MF23, BD Biosciences), CD11b Alexa Fluor 700 (M1/70, BD Biosciences), I-A/I-E Alexa Fluor 488 (M5/114.15.2, BD Biosciences), Ly-6C PerCP-Cy5.5 (AL-21, BD Biosciences), CD11c PE (HL3, BD Biosciences), F4/80 APC (BM8, Biolegend), Ly-6G Pacific Blue (1A8, Biolegend), CD45 Pacific Orange (30-F11, Invitrogen Life Technologies), and Live/Dead Fixable Near IR Dead Cell Stain (Invitrogen Life Technologies). Flow cytometry was performed with LSR II (BD Biosciences) and the data was analyzed with FACS Diva software (BD Biosciences). To assess the level of circulating G-MDSC population, blood samples were collected from the mice 7 days after the initiation of the anti-PD-1/anti-CTLA-4 antibody treatments with or without 5-AZA/Entinostat. […] CD8^+ T cell level was assessed using previously established phenotypic criteria of CD45^+CD3^+CD8^+ and total CD45^+CD3^+ cells was used as a common denominator. Treg cell level was assessed using previously established phenotypic criteria of CD45^+CD3^+CD4^+CD25^+FoxP3^+ and total CD45^+CD3^+CD4^+ cells were used as a common denominator.

CD8+ T cells = assay: In vitro survival assay (WST-1); type: cell-based, mouse; conditions: 24 hours, 0 to 50 μM
From the text: as §2, §3

[6] = tested on: IFN-γ secretion in co-cultures of G-MDSCs and CD8+ T cells; assay: IFN-γ assay in G-MDSC / CD8+ T cell co-cultures (ELISA); type: cell-based, mouse; conditions: G-MDSC to CD8+ T cell ratio 1:1, 24 hours, 0 to 0.25 μM
Description: Freshly isolated MDSCs and CD8^+ T cells from 4T1 tumor-bearing animals were cultured at MDSC to CD8^+ T cell ratios of 5:1, 2:1, 1:1, 1:2, and 1:5 in presence of recombinant IL-2 (Invitrogen Life Technologies) at 2000 U/mL and CD3/CD28 antibody coated beads (Miltenyi). MDSC and CD8^+ T cells were cultured at 1:1 ratio with entinostat at concentrations ranging from 0 μM to 0.25 μM. Cell-free supernatants were collected after 24-hour incubation at 37° C. and IFN-γ levels were assayed using Mouse IFN-γ DuoSet Elisa Development Kit (R&D Systems) according to the manufacturer's instruction.

[7] = individual mouse, listed as ENT

| SMILES | metastases (in words) (4T1 tumors) | primary tumors (in words) (4T1 tumors) | Liver Mets (4T1 tumors; AVERAGE of group) | Lung Mets (4T1 tumors; AVERAGE of group) | Primary Tumor Vol (mm^3) (4T1 tumors; AVERAGE of group) | Spleen Mets (4T1 tumors; AVERAGE of group) | cell viability (G-MDSCs [1]) | expression of MHC-I, B2M and TAP1 genes [2] | expression of MHC-I, B2M and TAP1 genes [3] | cell viability (4T1 cells) | also measured |
| --- | --- | --- | --- | --- | --- | --- | --- | --- | --- | --- | --- |
| Nc1ncn([C@@H]2O[C@H](CO)[C@@H](O)[C@H]2O)c(=O)n1 [AZA, 5-azacytidine] | unable to eradicate either primary tumor or metastasis | unable to eradicate either primary tumor or metastasis | 12 | 17 | 2750 | 1 | no effect at comparable concentrations | did not significantly increase the expression | did not significantly increase the expression | unresponsive | Liver Mets (4T1 tumors; individual mouse): 0 (3×) and 43 and 16; Lung Mets (4T1 tumors; individual mouse): 20 (2×) and 16 and 17 and 14; Primary Tumor Vol (mm^3) (4T1 tumors; individual mouse): 2345 mm^3 and 2454 mm^3 and 2477 mm^3 and 4358 mm^3 and 2117 mm^3; Spleen Mets (4T1 tumors; individual mouse): 0 (3×) and 3 and 1 |
| Nc1ccccc1NC(=O)c1ccc(CNC(=O)OCc2cccnc2)cc1 [entinostat] | unable to eradicate either primary tumor or metastasis | unable to eradicate either primary tumor or metastasis | 4 | 17 | 3483 | 1 | markedly reduced viability | did not significantly increase the expression | did not significantly increase the expression | unresponsive | toxicity as indicated by body weight changes [4]: Temporary self-limiting toxicity; number of circulating G-MDSCs (G-MDSCs [5]): striking reduction in the number of circulating G-MDSCs; cell viability (CD8+ T cells): only modest effects; Liver Mets (4T1 tumors; [7]): 10 and 3 and 0 (2×) and 6; Lung Mets (4T1 tumors; [7]): 25 and 20 (2×) and 0 and 22; Primary Tumor Vol (mm^3) (4T1 tumors; [7]): 3005 mm^3 and 5038 mm^3 and 2275 mm^3 and 3063 mm^3 and 4032 mm^3; Spleen Mets (4T1 tumors; [7]): 1 and 0 (3×) and 3; IFN-γ secretion inhibited by G-MDSCs [6]: reversed the inhibition in a dose-dependent manner |
